Molecules are shown by their SMILES.

The assay concerns Human platelet aggregation caused by ADP. The assay can be described thus: Inhibition of ADP-induced platelet aggregation (Mimic-human PRP). It counts as cell-based. Particulars: 20 μM ADP, human platelet concentrate diluted with PPP, absorption at 595 nm. In outline:
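Ki came from non-linear sigmoidal fits of inhibition, measured as the 3-min rise in absorbance at 595 nm after 20 μM ADP, relative to 0/20 μM ADP controls. Platelets (3–4×10^8/mL in PPP-diluted human PRP) were exposed to 0.01–30 μM compound for 20 min at room temperature beforehand.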

As for `CCCC(=O)NC[C@@H]1CCN(c2nc(N3CCn4c(nnc4C(F)(F)F)C3)c3cc(CCC)sc3n2)C1` [Example 8-2, N-{(S)-1-[6-Propyl-4-(3-trifluoromethyl-5,6-dihydro-8H-[1,2,4]triazolo[4,3-a]pyrazin-7-yl)-thieno[2,3-d]pyrimidin-2-yl]-pyrrolidin-3-ylmethyl}-butyramide], the Ki (as a rule, the equilibrium dissociation constant of an inhibitor or competing ligand from its target) was 110 nM.

`CCCc1cc2c(N3CCn4c(nnc4C(F)(F)F)C3)nc(N3CC[C@@H](CNC(=O)C(C)C)C3)nc2s1` [Example 8-3, N-{(S)-1-[6-Propyl-4-(3-trifluoromethyl-5,6-dihydro-8H-[1,2,4]triazolo[4,3-a]pyrazin-7-yl)-thieno[2,3-d]pyrimidin-2-yl]-pyrrolidin-3-ylmethyl}-isobutyramide] registered a Ki of 330 nM.

`CCCc1cc2c(N3CCn4c(nnc4C(F)(F)F)C3)nc(N3CC[C@H](CNC(C)=O)C3)nc2s1` [Example 8-4, N-{(R)-1-[6-Propyl-4-(3-trifluoromethyl-5,6-dihydro-8H-[1,2,4]triazolo[4,3-a]pyrazin-7-yl)-thieno[2,3-d]pyrimidin-2-yl]-pyrrolidin-3-ylmethyl}-acetamide] came in with a Ki of 14 nM.

`CCCc1cc2c(N3CCn4c(nnc4C(F)(F)F)C3)nc(N3CC[C@H](CNC(=O)C(C)C)C3)nc2s1` [Example 8-6, N-{(R)-1-[6-Propyl-4-(3-trifluoromethyl-5,6-dihydro-8H-[1,2,4]triazolo[4,3-a]pyrazin-7-yl)-thieno[2,3-d]pyrimidin-2-yl]-pyrrolidin-3-ylmethyl}-isobutyramide]: the affinity, expressed as Ki, was 120 nM.

The compound `CCCc1cc2c(N3CCn4c(nnc4C(F)(F)F)C3)nc(NCCNC(C)=O)nc2s1` [Example 8-7, N-{2-[6-Propyl-4-(3-trifluoromethyl-5,6-dihydro-8H-[1,2,4]triazolo[4,3-a]pyrazin-7-yl)-thieno[2,3-d]pyrimidin-2-ylamino]-ethyl}-acetamide] came in with a Ki of 32 nM.

Consider `CCCC(=O)NCCNc1nc(N2CCn3c(nnc3C(F)(F)F)C2)c2cc(CCC)sc2n1` [Example 8-8, N-{2-[6-Propyl-4-(3-trifluoromethyl-5,6-dihydro-8H-[1,2,4]triazolo[4,3-a]pyrazin-7-yl)-thieno[2,3-d]pyrimidin-2-ylamino]-ethyl}-butyramide], for which the inhibitory constant (Ki) stood at 85 nM.

In turn, `CCCc1cc2c(N3CCn4c(nnc4C(F)(F)F)C3)nc(NCCNC(=O)C(C)C)nc2s1` [Example 8-9, N-{2-[6-Propyl-4-(3-trifluoromethyl-5,6-dihydro-8H-[1,2,4]triazolo[4,3-a]pyrazin-7-yl)-thieno[2,3-d]pyrimidin-2-ylamino]-ethyl}-isobutyramide] yielded a Ki of 150 nM.

On to `CCCc1cc2c(N3CCn4c(nnc4C(F)(F)F)C3)nc(NC3CN(C(C)=O)C3)nc2s1` [Example 8-10, 1-{3-[6-Propyl-4-(3-trifluoromethyl-5,6-dihydro-8H-[1,2,4]triazolo[4,3-a]pyrazin-7-yl)-thieno[2,3-d]pyrimidin-2-ylamino]-azetidin-1-yl}-ethanone], for which affinity was put at a Ki of 110 nM.

On to `CCCc1cc2c(N3CCn4c(nnc4C(F)(F)F)C3)nc(N[C@H]3CCN(C(C)=O)C3)nc2s1` [Example 8-13, 1-{(S)-3-[6-Propyl-4-(3-trifluoromethyl-5,6-dihydro-8H-[1,2,4]triazolo[4,3-a]pyrazin-7-yl)-thieno[2,3-d]pyrimidin-2-ylamino]-pyrrolidin-1-yl}-ethanone], for which the affinity corresponds to a Ki of 3 nM.

Turning to `CCCC(=O)N1CC[C@H](Nc2nc(N3CCn4c(nnc4C(F)(F)F)C3)c3cc(CCC)sc3n2)C1` [Example 8-14, 1-{(S)-3-[6-Propyl-4-(3-trifluoromethyl-5,6-dihydro-8H-[1,2,4]triazolo[4,3-a]pyrazin-7-yl)-thieno[2,3-d]pyrimidin-2-ylamino]-pyrrolidin-1-yl}-butan-1-one], the Ki worked out at 3 nM.

Turning to `CCCc1cc2c(N3CCn4c(nnc4C(F)(F)F)C3)nc(N[C@H]3CCN(C(=O)C(C)C)C3)nc2s1` [Example 8-15, 2-Methyl-1-{(S)-3-[6-propyl-4-(3-trifluoromethyl-5,6-dihydro-8H-[1,2,4]triazolo[4,3-a]pyrazin-7-yl)-thieno[2,3-d]pyrimidin-2-ylamino]-pyrrolidin-1-yl}-propan-1-one], affinity was put at a Ki of 7 nM.

Turning to `CCCc1cc2c(N3CCn4c(nnc4C(F)(F)F)C3)nc(N[C@@H]3CCN(C(C)=O)C3)nc2s1` [Example 8-16, 1-{(R)-3-[6-Propyl-4-(3-trifluoromethyl-5,6-dihydro-8H-[1,2,4]triazolo[4,3-a]pyrazin-7-yl)-thieno[2,3-d]pyrimidin-2-ylamino]-pyrrolidin-1-yl}-ethanone], the Ki came out at 35 nM.

The compound `CCCC(=O)N1CC[C@@H](Nc2nc(N3CCn4c(nnc4C(F)(F)F)C3)c3cc(CCC)sc3n2)C1` [Example 8-17, 1-{(R)-3-[6-Propyl-4-(3-trifluoromethyl-5,6-dihydro-8H-[1,2,4]triazolo[4,3-a]pyrazin-7-yl)-thieno[2,3-d]pyrimidin-2-ylamino]-pyrrolidin-1-yl}-butan-1-one] had a Ki of 35 nM.

The compound `CCCc1cc2c(N3CCn4c(nnc4C(F)(F)F)C3)nc(N[C@@H]3CCN(C(=O)C(C)C)C3)nc2s1` [Example 8-18, 2-Methyl-1-{(R)-3-[6-propyl-4-(3-trifluoromethyl-5,6-dihydro-8H-[1,2,4]triazolo[4,3-a]pyrazin-7-yl)-thieno[2,3-d]pyrimidin-2-ylamino]-pyrrolidin-1-yl}-propan-1-one] gave a Ki of 41 nM.

`CCCc1cc2c(N3CCn4c(nnc4C(F)(F)F)C3)nc(NC[C@@H]3CCN(C(C)=O)C3)nc2s1` [Example 8-19, 1-((S)-3-{[6-Propyl-4-(3-trifluoromethyl-5,6-dihydro-8H-[1,2,4]triazolo[4,3-a]pyrazin-7-yl)-thieno[2,3-d]pyrimidin-2-ylamino]-methyl}-pyrrolidin-1-yl)-ethanone] showed a Ki of 150 nM.

On to `CCCC(=O)N1CC[C@@H](CNc2nc(N3CCn4c(nnc4C(F)(F)F)C3)c3cc(CCC)sc3n2)C1` [Example 8-20, 1-((S)-3-{[6-Propyl-4-(3-trifluoromethyl-5,6-dihydro-8H-[1,2,4]triazolo[4,3-a]pyrazin-7-yl)-thieno[2,3-d]pyrimidin-2-ylamino]-methyl}-pyrrolidin-1-yl)-butan-1-one], for which the Ki was 410 nM.

Consider `CCCc1cc2c(N3CCn4c(nnc4C(F)(F)F)C3)nc(NC[C@@H]3CCN(C(=O)C(C)C)C3)nc2s1` [Example 8-21, 2-Methyl-1-((S)-3-{[6-propyl-4-(3-trifluoromethyl-5,6-dihydro-8H-[1,2,4]triazolo[4,3-a]pyrazin-7-yl)-thieno[2,3-d]pyrimidin-2-ylamino]-methyl}-pyrrolidin-1-yl)-propan-1-one], for which the Ki came to 270 nM.

Consider `CCCc1cc2c(N3CCn4c(nnc4C(F)(F)F)C3)nc(NC[C@H]3CCN(C(C)=O)C3)nc2s1` [Example 8-22, 1-((R)-3-{[6-Propyl-4-(3-trifluoromethyl-5,6-dihydro-8H-[1,2,4]triazolo[4,3-a]pyrazin-7-yl)-thieno[2,3-d]pyrimidin-2-ylamino]-methyl}-pyrrolidin-1-yl)-ethanone], for which the affinity, expressed as Ki, was 220 nM.

`CCCC(=O)N1CC[C@H](CNc2nc(N3CCn4c(nnc4C(F)(F)F)C3)c3cc(CCC)sc3n2)C1` [Example 8-23, 1-((R)-3-{[6-Propyl-4-(3-trifluoromethyl-5,6-dihydro-8H-[1,2,4]triazolo[4,3-a]pyrazin-7-yl)-thieno[2,3-d]pyrimidin-2-ylamino]-methyl}-pyrrolidin-1-yl)-butan-1-one] yielded a Ki of 570 nM.

As for `CCCc1cc2c(N3CCn4c(nnc4C(F)(F)F)C3)nc(NC[C@H]3CCN(C(=O)C(C)C)C3)nc2s1` [Example 8-24, 2-Methyl-1-((R)-3-{[6-propyl-4-(3-trifluoromethyl-5,6-dihydro-8H-[1,2,4]triazolo[4,3-a]pyrazin-7-yl)-thieno[2,3-d]pyrimidin-2-ylamino]-methyl}-pyrrolidin-1-yl)-propan-1-one], the inhibitory constant (Ki) is 1400 nM.

Regarding `CCCc1cc2c(N3CCn4c(nnc4C(F)(F)F)C3)nc(OC3CN(C(=O)C(C)C)C3)nc2s1` [Example 8-27, 2-Methyl-1-{3-[6-propyl-4-(3-trifluoromethyl-5,6-dihydro-8H-[1,2,4]triazolo[4,3-a]pyrazin-7-yl)-thieno[2,3-d]pyrimidin-2-yloxy]-azetidin-1-yl}-propan-1-one], the Ki was 260 nM.

Regarding `CCCc1cc2c(N3CCn4c(nnc4C(F)(F)F)C3)nc(OC[C@H]3CCCN3C(C)=O)nc2s1` [Example 8-28, -{(R)-2-[6-Propyl-4-(3-trifluoromethyl-5,6-dihydro-8H-[1,2,4]triazolo[4,3-a]pyrazin-7-yl)-thieno[2,3-d]pyrimidin-2-yloxymethyl]-pyrrolidin-1-yl}-ethanone], the affinity corresponds to a Ki of 45 nM.

The compound `CCCC(=O)N1CCC[C@@H]1COc1nc(N2CCn3c(nnc3C(F)(F)F)C2)c2cc(CCC)sc2n1` [Example 8-29, 1-{(R)-2-[6-Propyl-4-(3-trifluoromethyl-5,6-dihydro-8H-[1,2,4]triazolo[4,3-a]pyrazin-7-yl)-thieno[2,3-d]pyrimidin-2-yloxymethyl]-pyrrolidin-1-yl}-butan-1-one] displayed a Ki of 170 nM.

The compound `CCCc1cc2c(N3CCn4c(nnc4C(F)(F)F)C3)nc(OC[C@H]3CCCN3C(=O)C(C)C)nc2s1` [Example 8-30, 2-Methyl-1-{(R)-2-[6-propyl-4-(3-trifluoromethyl-5,6-dihydro-8H-[1,2,4]triazolo[4,3-a]pyrazin-7-yl)-thieno[2,3-d]pyrimidin-2-yloxymethyl]-pyrrolidin-1-yl}-propan-1-one] showed a Ki of 140 nM.

Regarding `CCCc1cc2c(N3CCn4c(nnc4C(F)(F)F)C3)nc(OC[C@@H]3CCCN3C(C)=O)nc2s1` [Example 8-31, 1-{(S)-2-[6-Propyl-4-(3-trifluoromethyl-5,6-dihydro-8H-[1,2,4]triazolo[4,3-a]pyrazin-7-yl)-thieno[2,3-d]pyrimidin-2-yloxymethyl]-pyrrolidin-1-yl}-ethanone], the Ki is 19 nM.

The values are drawn from patent US20110166121A1 (LG LIFE SCIENCES LTD., priority 2008, published 2011).
